{"source": "patent US20090016989A1", "about": "“ANTIBODIES TO HUMAN SOMATOSTATIN RECEPTOR AND METHODS OF USE” (priority 2007, published 2009)", "format_in_all_cases": "cell-based, human", "key": {"[1]": {"test_system": "shSSTR subtype 2-BON cells", "test": "Growth suppression in tetracycline-controlled shRNA knock-down cells", "conditions": "sh-hSSTR subtype 2-BON; FIG. 5", "protocol": "To validate that cell growth inhibition is caused by the anti-hSSTR antibody in a subtype specific manner, BON cells were stably transfected with plasmids carrying short hairpin RNA shSSTR subtype 2 or shSSTR subtype 5 in which the expression of the shRNAs were under the control of tetracycline. Sh-hSSTR subtype 2 and sh-hSSTR subtype 5 destabilize the target receptor's messenger RNA and, consequently, knock down the expression of the target gene.\nThe resulting maximal suppression in hours (20 hours) is designated as 100% of growth suppression. The difference measured in doubling time detected between experimental samples and untreated samples divided by the maximal suppression yields the percent growth suppression.\nshSSTR BON cells were used to test the specificity of anti-hSSTR subtype 2 and anti-hSSTR subtype 5 antibodies in suppressing BON cell growth. […] The left panels of FIG. 6a and FIG. 6B are the experimental group, while the right panels are the negative control. The Y-axis of each of FIG. 6A and FIG. 6B indicates the growth suppression outcome in %, while the X-axis of each of FIG. 6A and FIG. 6B indicates the increasing concentrations of the antibodies added in each sample. […]"}, "[2]": {"test_system": "BON cells", "test": "Serotonin EIA, serotonin release", "protocol": "A serotonin ([…]) assay was performed using Serotonin EIA (Biosource, Cat# KAPL10-0900) to measure serotonin release by BON cells over a 48-hour period with or without treatment. […] After 24 hours, the BON cells were subjected to six different daily treatments (at maximum dosages) and grown in FBS-free cell growth media for 2 days in a sterile tissue culture chamber at 37° C. with 6% CO2. These six treatments were: […] The anti-hSSTR Abs (4)-(6) were antibodies produced in the experiment described in Example 1. At the end of each treatment, 1× Halt Protease Inhibitor cocktail (Pierce, Cat# 78415) was immediately added to each sample and the media was collected from each sample and used for Serotonin detection. Next, cells were dissociated from the plate using 2 ml of 1× trypsin-EDTA (Invitrogen Cat#2520) in cell growth media and incubated at 37° C. with 6% CO2 for 5 minutes. Subsequently, an additional 8 ml of cell growth media was added to neutralize trypsin-EDTA, and subjected to 1000 rpm at 4° C. in 15 ml Falcon tubes using Beckman table top centrifuge. Guava Technologies PCA-96 instrument (tabletop flow cytometer) and Viacount flex reagent (Guava Technologies, Cat# 4500-0100) were then used to determine the number of cells for the abovementioned treatments. The results were as follows: […] […]"}, "[3]": {"test_system": "BON cells", "test": "Cell cycle progression, propidium iodide flow cytometry", "conditions": "48 hours, 5 μg/ml antibodies or rabbit IgG, 100 nM octreotide, FIG. 12", "protocol": "Propidium iodide dye was used in flow cytometry (Guava Cell Cycle Reagent Cat #4500-0220) to stain DNA and detect cell cycle progression in BON cells. Treatment conditions for the experiment were as follows: (i) D-PBS; (ii) 5 μg/ml rabbit IgG; (iii) 5 μg/ml anti-hSSTR subtype 2 antibodies; […] Treatments, as described above, were added to the cells once every 24 hours for a total of 48 hours. At the end of each treatment, cells were dissociated from the plate using 2 ml 1× trypsin-EDTA (Invitrogen Cat#2520). […] Next, phosphate buffer solution (D-PBS) (Invitrogen Cat#14190-144) was used as the exchange buffer and 15 ml Falcon tubes with samples were spun at 900 rpm using a table top centrifuge (Beckman Coulter). After centrifugation, supernatant was discarded and cell pellet was resuspended in 10 ml of PBS and this was repeated two times. […] Guava Cell Cycle Reagent (Guava Technologies, Cat#4500-0220) was used for detection by using the Guava PCA96 instrument. Cell Cycle data was analyzed by using Guava Cell Cycle module (Guava Technologies, Cat# 0500-0480). For further detail, please see Guava Cell Cycle Reagent protocol (Guava Technologies)."}, "[4]": {"test_system": "QGP cells", "test": "MTS growth assay in pancreatic islet carcinoma cells", "conditions": "antibodies 5 μg/ml every 24 hours, octreotide 100 nM every 24 hour, FIG. 15", "protocol": "The QGP cells were maintained in F12 HAM (Invitrogen, Cat#31765035)/D-MEM (Invitrogen, Cat#10567-014) (50/50) in 10% certified fetal bovine serum (FBS) (Invitrogen, Cat#16000-044) in 10-cm tissue culture plates (BD Biosciences, Cat#353003). QGP cells were first seeded at a density of 5000 cells/well in QGP cell growth media and grown in 96-well cell culture plates (Costar, Cat#3590) and allowed to attach and grow in 100 μl cell growth media. […] QGP cells constitutively make their own somatostatin. This negative growth autocrine loop was tested by adding 10 μg/ml neutralizing anti-SST antibody (SST antibody, right hand Y-axis of FIG. 15) once every 24 hours, and a significant growth rescue (29%) was observed. […] CellTiter 96® Aqueous One Solution Cell Proliferation Assay (MTS) (Promega, Cat#G3581), was used as described above to measure the growth doubling time for all QGP cells. Daily data collected was used to calculate the doubling time in hours. QGP cell growth increase or decrease as a result of each treatment is presented as a percent change along the x-axis in FIG. 15. The percent change for QGP cells in each treatment was derived by normalizing treated cells against untreated cells (as % of change in growth) in growth doubling time."}}}
{"smiles": "C[C@@H](O)[C@@H]1NC(=O)[C@H](CCCCN)NC(=O)[C@@H](Cc2c[nH]c3ccccc23)NC(=O)[C@H](Cc2ccccc2)NC(=O)[C@@H](NC(=O)[C@H](N)Cc2ccccc2)CSSC[C@@H](C(=O)N[C@H](CO)[C@@H](C)O)NC1=O", "note": "[octreotide]", "values": [{"measurement": "growth doubling time under octreotide compared to BON cells", "setting": "[1]", "result": "did not change"}, {"measurement": "serotonin level in the media", "setting": "[2]; 48-hour period, 5 μg/ml antibody or rabbit IgG, 100 nM octreotide, four independent experiments", "result": 2126, "unit": "attogram/cell"}, {"measurement": "decrease of serotonin release against control", "setting": "[2]; 48 hours, antibodies against rabbit IgG, octreotide against vehicle (PBS)", "result": 2.7, "unit": "fold"}, {"measurement": "cell population in G0/G1", "setting": "[3]", "result": "~75", "unit": "%"}, {"measurement": "QGP growth suppression", "setting": "[4]", "result": "sensitive"}]}
